Assay results: patent publication US10174013B2, “Benzimidazole derivatives as kinase inhibitors” (SELVITA S.A., priority 2012, dated 2019)
Structures can show the parent of a compound that is named as a salt. Where two headings read alike, the source gives them in different places.

What was measured:
[1] = target: FLT3wt (Homo sapiens (Human), UniProt P36888); assay: ADP-Glo Kinase Assay, Flt3 wt; type: biochemical; conditions: 1 μM compound; for inhibition at 1 µM: read-out: Flt3wt % INH (1 μM)
Outline: (§1)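 Compounds were diluted in assay buffer to 1000 nM and incubated with kinase, substrate and ATP at apparent Km. Remaining ATP was depleted, ADP converted to ATP and detected by luciferase; percent inhibition came from normalized luminescence.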

[2] = tested on: HEL92 cells; assay: Growth inhibition, MTS assay, HEL92; type: cell-based, Human; conditions: MTS cell viability, read-out: HEL92 ED50
[3] = target: CDK2/E (Homo sapiens (Human), UniProt P24941); assay: ADP-Glo Kinase Assay, CDK2/E; type: biochemical; conditions: 1 μM compound; for inhibition at 1 µM: read-out: CDK2/E % INH (1 μM)
Outline: as §1

[4] = target: Pim-1 (Homo sapiens (Human), UniProt P11309); assay: ADP-Glo Kinase Assay, Pim-1; type: biochemical; conditions: 1 μM compound; for inhibition at 1 µM: read-out: Pim-1 % INH (1 μM)
Outline: as §1

[5] = tested on: MV4-11 cells; assay: Growth inhibition, MTS assay, MV4-11; type: cell-based, Human; conditions: MTS cell viability, read-out: MV4-11 ED50
[6] = tested on: MOLM16 cells; assay: Growth inhibition, MTS assay, MOLM16; type: cell-based, Human; conditions: MTS cell viability, read-out: MOLM 16 ED50
Excerpt: (§2) The following cell lines, were obtained and used in tests as outlined below: • Human myelomonocytic, biphenotypic leukemia MV4-11 cells (harboring a Flt3-ITD mutation); • Human Acute Myeloid Leukemia MOLM16 cells; • Human Acute Myeloid Leukemia MOLM13 cells (harboring a Flt3-ITD mutation); • Human Myeloid Leukemia KG-1 cells; • Human erythroleukemia HEL92 cells; • Human mantle cell lymphoma Jeko-1 cells; • Human hepatocellular carcinoma HepG2 cells; and • Human colon adenocarcinoma SW-480 cells.
(§3) The assays were carried out according to the following protocol, which is described as an example for the MV4-11 cells:
(§4) Ten thousand MV4-11 cells were inoculated into each well of a 96-well microplate (manufactured by Corning Corp.) using Iscove's MDM medium (culture medium) containing 10% fetal calf serum (FCS). The same day, a dimethyl sulfoxide (DMSO) solution of each test compound prepared in a concentration of 10 mmol/L was further diluted with DMSO to the desired concentrations (0.1, 0.5, 1, 2.5, 5 and 10 micromol/L), and the diluted solution was added to each well. The individual wells were further cultured in 5% carbon dioxide at 37° C. for 72 hours. […] Briefly, 10 μl MTS (3-(4,5-Dimethyl-2-thiazolyl)-5-(carboxymethoxyphenyl)-2-(4-sulfophenyl)-2H-tetrazolium was added to each well, and culturing was performed in 5% carbon dioxide at 37° C. for 2 hours. After this incubation and using a microplate spectrophotometer (Synergy 2 multi-mode microplate reader (BioTek)), the absorbance of each well was measured at 490 nm. The value for cells not incubated with a test compound was designated as 100%. By comparing these values with the absorbance difference obtained at the well in which each test compound was added, the cell viability (% viability) after treatment with the test compound was calculated.

[7] = target: Pim-2 (Homo sapiens (Human), UniProt Q9P1W9); assay: ADP-Glo Kinase Assay, Pim-2; type: biochemical; conditions: 1 μM compound; for inhibition at 1 µM: read-out: Pim-2 % INH (1 μM)
Outline: as §1

[8] = target: Pim-3 (Homo sapiens (Human), UniProt Q86V86); assay: ADP-Glo Kinase Assay, Pim-3; type: biochemical; conditions: 1 μM compound; for inhibition at 1 µM: read-out: Pim-3 % INH (1 μM)
Outline: as §1

[9] = tested on: SW-480 cells; assay: Growth inhibition, MTS assay, SW-480; type: cell-based, Human; conditions: 72 hours, MTS cell viability, read-out: SW-480 ED50
[10] = target: hERG potassium channel (Homo sapiens (Human), UniProt Q12809); assay: hERG automated patch clamp assay (QPatch HT)
Protocol: The hERG (human ether-A-go-go-related gene) channel corresponds to an important anti-target for potential new drugs since its inhibition may lead to sudden death. In order to establish whether the compounds of the present invention act on hERG, the following experiment was carried out.
The in vitro effects of the compounds indicated in Table 5 on the hERG potassium channel current (a surrogate for Iκr, the rapidly activating, delayed rectifier cardiac potassium current) expressed in mammalian cells were evaluated at room temperature using the QPatch HT® (Sophion Bioscience A/S, Denmark), an automatic parallel patch clamp system. Each compound indicated in Table 5 was evaluated at 0.1, 1, 3, 10 and 30 μM with each concentration tested in a minimum of two cells (n≥2). The duration of exposure to each compound concentration was 3 minutes.

[11] = tested on: HepG2 cells; assay: Growth inhibition, MTS assay, HepG2; type: cell-based, Human; conditions: MTS cell viability, read-out: HepG2 ED50
[12] = target: DYRK1 (Homo sapiens (Human), UniProt Q13627); assay: ADP-Glo Kinase Assay, DYRK1; type: biochemical; conditions: 1 μM compound; for inhibition at 1 µM: read-out: DYRK1A % INH (1 μM)
Outline: as §1

[13] = tested on: Jeko-1 cells; assay: Growth inhibition, MTS assay, Jeko-1; type: cell-based, Human; conditions: 72 hours, MTS cell viability, read-out: Jeko-1 ED50
Excerpt: as §2, §3, §4

[14] = tested on: MV4-11 xenograft; assay: MV4-11 xenograft in immunocompromised mice; type: in vivo; conditions: MV4-11 xenograft, oral
Excerpt: Several compounds of the present invention have been studied in a xenograft in mice, an in vivo tumor transplantation model used to investigate the factors involved in malignant transformation, invasion and metastasis, as well as to examine response to therapy. For the purpose of acceptance of donor leukemic cells (MV4-11 or MOLM16 cells), immunocompromised mice were used, namely particularly severely compromised immunodeficient mice (NOD/scid, SCID/beige). When tumors developed size of approx. 50-200 mm^3, the compounds as indicated below in Tables 3 and 3a were administered orally every day for 2-3 weeks, in once a day (QD) or twice a day (BID) schedule. During the course of the experiment, the mice were monitored and the following two parameters were measured: the tumor growth inhibition (TGI) factor as a measure of therapeutic efficacy and the body weight change (ΔBW) factor as a measure of possible compound toxicity. The results are depicted in Tables 3 and 3a.
Next, compound 26A was evaluated in a xenograft study of acute myeloid leukemia (MV-4-11), alone or in a combinational treatment with Cytarabine in vivo (Table 3b; FIG. 6). Compound 26A was tested in two doses (50 and 25 mg/kg) and administered twice a day (BID); Cytarabine was administered at dose of 50 mg/kg three times in a week (TIW). During 15 days of compound administration dose-dependent anti-cancer activity of compound 26A (administered alone) was shown. Tumor growth inhibition reached −82% and −77%, respectively.

Chain of Pim-2 (Q9P1W9 whole entry): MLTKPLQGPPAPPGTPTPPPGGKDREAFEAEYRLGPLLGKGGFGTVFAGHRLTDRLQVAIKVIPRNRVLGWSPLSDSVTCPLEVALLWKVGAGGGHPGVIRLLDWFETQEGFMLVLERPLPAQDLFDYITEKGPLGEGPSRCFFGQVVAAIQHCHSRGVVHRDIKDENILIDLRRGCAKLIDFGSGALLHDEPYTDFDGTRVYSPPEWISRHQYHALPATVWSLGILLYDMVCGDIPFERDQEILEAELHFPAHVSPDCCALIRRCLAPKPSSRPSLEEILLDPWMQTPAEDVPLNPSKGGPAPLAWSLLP
Chain of FLT3wt (P36888 27-993): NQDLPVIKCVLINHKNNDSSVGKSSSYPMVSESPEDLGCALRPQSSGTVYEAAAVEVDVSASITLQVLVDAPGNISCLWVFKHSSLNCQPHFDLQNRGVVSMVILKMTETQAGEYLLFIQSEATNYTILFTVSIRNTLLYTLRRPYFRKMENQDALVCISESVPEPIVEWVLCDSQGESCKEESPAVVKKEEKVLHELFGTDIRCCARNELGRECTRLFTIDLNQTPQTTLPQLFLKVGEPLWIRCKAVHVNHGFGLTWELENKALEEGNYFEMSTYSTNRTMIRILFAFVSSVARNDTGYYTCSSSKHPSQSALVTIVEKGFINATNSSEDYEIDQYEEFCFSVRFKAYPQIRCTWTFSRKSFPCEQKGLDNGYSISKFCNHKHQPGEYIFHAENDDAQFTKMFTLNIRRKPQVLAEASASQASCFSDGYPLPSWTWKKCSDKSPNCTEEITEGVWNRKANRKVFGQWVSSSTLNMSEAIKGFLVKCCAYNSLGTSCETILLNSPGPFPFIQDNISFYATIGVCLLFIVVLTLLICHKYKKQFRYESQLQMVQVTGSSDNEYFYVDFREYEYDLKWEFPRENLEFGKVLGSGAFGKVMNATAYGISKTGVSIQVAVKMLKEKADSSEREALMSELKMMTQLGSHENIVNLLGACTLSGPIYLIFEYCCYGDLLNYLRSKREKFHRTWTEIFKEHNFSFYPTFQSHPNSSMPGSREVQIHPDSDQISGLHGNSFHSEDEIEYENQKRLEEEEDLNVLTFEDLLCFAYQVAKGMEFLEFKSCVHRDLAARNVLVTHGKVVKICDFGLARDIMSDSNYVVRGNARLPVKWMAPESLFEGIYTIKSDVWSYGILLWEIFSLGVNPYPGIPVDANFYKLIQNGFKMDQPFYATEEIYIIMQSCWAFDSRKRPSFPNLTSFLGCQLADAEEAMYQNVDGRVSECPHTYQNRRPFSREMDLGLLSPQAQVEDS
Chain of hERG potassium channel (Q12809 whole entry): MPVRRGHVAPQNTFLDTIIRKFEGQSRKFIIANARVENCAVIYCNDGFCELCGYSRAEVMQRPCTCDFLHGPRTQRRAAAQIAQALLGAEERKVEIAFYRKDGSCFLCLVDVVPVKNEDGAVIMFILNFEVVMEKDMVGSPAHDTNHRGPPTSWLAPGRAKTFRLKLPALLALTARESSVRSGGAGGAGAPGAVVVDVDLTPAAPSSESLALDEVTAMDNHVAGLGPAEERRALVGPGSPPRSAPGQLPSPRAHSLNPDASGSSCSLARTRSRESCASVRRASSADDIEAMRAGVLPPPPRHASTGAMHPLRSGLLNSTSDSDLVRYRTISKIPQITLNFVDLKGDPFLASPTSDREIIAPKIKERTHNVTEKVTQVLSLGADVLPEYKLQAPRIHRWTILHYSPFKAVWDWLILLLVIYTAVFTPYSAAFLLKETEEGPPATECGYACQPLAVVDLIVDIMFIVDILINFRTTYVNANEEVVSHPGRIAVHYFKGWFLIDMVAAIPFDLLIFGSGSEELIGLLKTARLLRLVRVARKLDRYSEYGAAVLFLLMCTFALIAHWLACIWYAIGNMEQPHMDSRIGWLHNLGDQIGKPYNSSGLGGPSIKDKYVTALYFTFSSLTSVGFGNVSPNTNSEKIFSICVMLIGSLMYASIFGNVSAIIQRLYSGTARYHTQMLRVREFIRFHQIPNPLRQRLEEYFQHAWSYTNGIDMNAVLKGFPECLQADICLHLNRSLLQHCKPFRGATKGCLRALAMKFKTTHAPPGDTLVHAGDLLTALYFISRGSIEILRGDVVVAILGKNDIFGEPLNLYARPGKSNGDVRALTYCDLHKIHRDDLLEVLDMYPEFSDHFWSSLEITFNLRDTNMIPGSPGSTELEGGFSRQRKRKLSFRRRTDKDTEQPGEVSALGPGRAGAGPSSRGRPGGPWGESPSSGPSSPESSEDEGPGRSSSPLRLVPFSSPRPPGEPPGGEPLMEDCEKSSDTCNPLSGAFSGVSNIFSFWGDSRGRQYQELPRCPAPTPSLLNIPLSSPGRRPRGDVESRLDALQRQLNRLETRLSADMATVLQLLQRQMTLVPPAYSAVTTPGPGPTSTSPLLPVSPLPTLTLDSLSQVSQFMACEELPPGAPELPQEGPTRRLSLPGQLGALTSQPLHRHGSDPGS
Chain of Pim-1 (P11309 whole entry): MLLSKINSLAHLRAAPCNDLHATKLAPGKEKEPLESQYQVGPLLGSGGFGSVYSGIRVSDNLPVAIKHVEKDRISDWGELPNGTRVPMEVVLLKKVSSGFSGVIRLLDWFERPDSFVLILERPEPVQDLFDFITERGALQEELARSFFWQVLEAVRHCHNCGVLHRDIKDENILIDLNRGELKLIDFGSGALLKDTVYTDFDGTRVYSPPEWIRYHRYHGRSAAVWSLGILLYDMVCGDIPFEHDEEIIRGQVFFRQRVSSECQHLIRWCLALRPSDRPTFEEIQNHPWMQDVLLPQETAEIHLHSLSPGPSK

Structure (SMILES)	inhibition at 1 µM [1]	inhibition at 1 µM [3]	inhibition at 1 µM [4]	IC50 ([6]; Homo sapiens, MOLM16, 72 h)	IC50 ([11]; Homo sapiens, HepG2, 72 h)	inhibition at 1 µM [12]	IC50 ([5]; Homo sapiens, MV4-11, 72 h)	further results
CC(C)n1c(C2CCCC(N)C2)nc2c([N+](=O)[O-])c(Br)c(Br)cc21 (single isomer, unassigned) [Example 26B, 3-[5,6-dibromo-4-nitro-1-(propan-2-yl)-1H-1,3-benzodiazol-2-yl]cyclohexan-1-amine]	43%	36%	> 95%	100 nM				IC50 ([2]; 72 hours): 6100 nM; IC50 ([5]; 72 hours): 400 nM
CCn1c(N2CCNCC2C)nc2c([N+](=O)[O-])c(Br)c(Br)cc21 (stereo not shown) [Example 1AD]	18%	26%	> 95%		600 nM	72%	500 nM	inhibition at 1 µM [7]: 52%; inhibition at 1 µM [8]: > 95%; IC50 ([9]; Homo sapiens, SW480): 700 nM; IC50 ([2]; Homo sapiens, 72 h): 500 nM; IC50 [10]: 1420 nM; IC50 ([13]; Homo sapiens, JeKo-1): 400 nM
CCn1c(NCCN)nc2c([N+](=O)[O-])c(Br)c(Br)cc21 [Example 1AL]								Pim-2 % INH (1 μM) [7]: 42%; Flt3wt % INH (1 μM) [1]: <5%; Pim-3 % INH (1 μM) [8]: >95%; IC50 [9]: 5300 nM; IC50 ([2]; 72 hours): 5300 nM; IC50 [10]: 2420 nM; IC50 ([11]; 72 hours): 1400 nM; DYRK1A % INH (1 μM) [12]: 49%; CDK2/E % INH (1 μM) [3]: <5%; Pim-1 % INH (1 μM) [4]: >95%; IC50 ([5]; 72 hours): 2200 nM; IC50 [13]: 2300 nM
CC(C)n1c(N2CCC[C@H](N)C2)nc2c([N+](=O)[O-])c(Br)c(Br)cc21 [Example 1AP]								Pim-2 % INH (1 μM) [7]: 80%; Flt3wt % INH (1 μM) [1]: 56%; Pim-3 % INH (1 μM) [8]: 93%; TGI (tumor growth inhibition) ([14]; 150 mg/Kg QD): 99%; ΔBW (body weight change) ([14]; 150 mg/Kg QD): 11.7%; TGI (tumor growth inhibition) ([14]; doses as in Table 3): exceeding 97%; IC50 [9]: 2400 nM; IC50 ([2]; 72 hours): 2400 nM; IC50 [10]: 1820 nM; IC50 ([11]; 72 hours): 900 nM; DYRK1A % INH (1 μM) [12]: 70%; CDK2/E % INH (1 μM) [3]: 13%; Pim-1 % INH (1 μM) [4]: >95%; IC50 ([5]; 72 hours): 300 nM; IC50 [13]: 1300 nM
N[C@@H]1CCN(c2nc3c([N+](=O)[O-])c(Br)c(Br)cc3n2C2CCC2)C1 [Example 1DC]								Flt3wt % INH (1 μM) [1]: 52%; IC50 ([2]; 72 hours): 2000 nM; IC50 ([11]; 72 hours): 1000 nM; DYRK1A % INH (1 μM) [12]: >95%; Pim-1 % INH (1 μM) [4]: >95%; IC50 ([5]; 72 hours): 200 nM; IC50 ([6]; 72 hours): 160 nM
CC(C)n1c(N2CCC(N)CC2)nc2c(C#N)c(Br)c(Br)cc21 [Example 1DT]	< 5%	46%	> 95%	300 nM	1000 nM	34%	1500 nM	
CCn1c(NC2CCC(N)CC2)nc2c(C#N)c(Br)c(Br)cc21 (stereo not shown) [Example 1DV]	< 5%	50%	> 95%	1500 nM	2900 nM	95%	2100 nM	
CN[C@@H]1CCN(c2nc3c(C#N)c(Br)c(Br)cc3n2C(C)C)C1 [Example 1DW]	8%	48%	> 95%	300 nM			5100 nM	
NC(=O)Cn1c(N2CCNCC2)nc2c([N+](=O)[O-])c(Br)c(Br)cc21 [Example 2L, 2-[5,6-dibromo-4-nitro-2-(piperazin-1-yl)-1H-1,3-benzodiazol-1-yl]acetamide]			67%	3100 nM			6100 nM	
NCCCn1c(N2CC[C@@H](N)C2)nc2c([N+](=O)[O-])c(Br)c(Br)cc21 [Example 3A, (3R)-1-[1-(3-aminopropyl)-5,6-dibromo-4-nitro-1H-1,3-benzodiazol-2-yl]pyrrolidin-3-amine]	< 5%	20%	> 95%	1900 nM	6300 nM		2300 nM	
NCCn1c(N2CC[C@H](N)C2)nc2c([N+](=O)[O-])c(Br)c(Br)cc21 [Example 3B, (3S)-1-[1-(2-aminoethyl)-5,6-dibromo-4-nitro-1H-1,3-benzodiazol-2-yl]pyrrolidin-3-amine]			> 95%	1500 nM		18%	1300 nM	
CCn1c(N2CCNCC2)nc2c(C#N)c(Br)c(Br)cc21 [Example 8A, 5,6-dibromo-1-ethyl-2-(piperazin-1-yl)-1H-1,3-benzodiazole-4-carbonitrilehydrochloride]	11%	< 5%	82%		1700 nM	46%	1300 nM	inhibition at 1 µM [7]: 14%; inhibition at 1 µM [8]: 92%; IC50 ([9]; Homo sapiens, SW480): 4700 nM; IC50 ([2]; Homo sapiens, 72 h): 4800 nM; IC50 [10]: 770 nM; IC50 ([13]; Homo sapiens, JeKo-1): 1400 nM
CC(C)n1c(N2CCNCC2)nc2c([N+](=O)[O-])c(C(F)(F)F)c(Br)cc21 [Example 9B, 6-bromo-4-nitro-2-(piperazin-1-yl)-1-(propan-2-yl)-5-(trifluoromethyl)-1H-1,3-benzodiazole]			59%	7290 nM	2700 nM	33%	5900 nM	
CC(C)n1c(N2C[C@H]3C[C@@H]2CN3)nc2c([N+](=O)[O-])c(Br)c(Br)cc21 [Example 22AE, 5,6-dibromo-2-[(1R,4R)-2,5-diazabicyclo[2.2.1]heptan-2-yl]-4-nitro-1-(propan-2-yl)-1H-1,3-benzodiazole]			76%	2800 nM	> 10000 nM	95%	2700 nM	
